For 30 compounds, IC50 results are on record in patent US10189854B2, “Substituted pyrimidine compounds” (Grünenthal GmbH, priority 2014, dated 2019).

Some results are limits rather than exact numbers.

For this assay, the target named is human PDE4B1 (Homo sapiens (Human), UniProt Q07343). Description: cAMP HTRF assay to determine the activity of hPDE4B1. The note with it: IC50 inhibition of PDE4B; human recombinant PDE4B1, cAMP HTRF assay. Format: biochemical. The method, boiled down: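 Recombinant human PDE4B1 expressed in Sf9 cells (4.8 U) was incubated with 40 nM cAMP for 30 min at room temperature in Tris buffer, pH 7.8, with MgCl2, DTT and Tween 20. HTRF detection of remaining cAMP followed, with 1 mM IBMX stop, read 60 min later as the 665/620 nm ratio. Results are % inhibition versus control.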
Sequence of human PDE4B1 (Q07343 whole entry): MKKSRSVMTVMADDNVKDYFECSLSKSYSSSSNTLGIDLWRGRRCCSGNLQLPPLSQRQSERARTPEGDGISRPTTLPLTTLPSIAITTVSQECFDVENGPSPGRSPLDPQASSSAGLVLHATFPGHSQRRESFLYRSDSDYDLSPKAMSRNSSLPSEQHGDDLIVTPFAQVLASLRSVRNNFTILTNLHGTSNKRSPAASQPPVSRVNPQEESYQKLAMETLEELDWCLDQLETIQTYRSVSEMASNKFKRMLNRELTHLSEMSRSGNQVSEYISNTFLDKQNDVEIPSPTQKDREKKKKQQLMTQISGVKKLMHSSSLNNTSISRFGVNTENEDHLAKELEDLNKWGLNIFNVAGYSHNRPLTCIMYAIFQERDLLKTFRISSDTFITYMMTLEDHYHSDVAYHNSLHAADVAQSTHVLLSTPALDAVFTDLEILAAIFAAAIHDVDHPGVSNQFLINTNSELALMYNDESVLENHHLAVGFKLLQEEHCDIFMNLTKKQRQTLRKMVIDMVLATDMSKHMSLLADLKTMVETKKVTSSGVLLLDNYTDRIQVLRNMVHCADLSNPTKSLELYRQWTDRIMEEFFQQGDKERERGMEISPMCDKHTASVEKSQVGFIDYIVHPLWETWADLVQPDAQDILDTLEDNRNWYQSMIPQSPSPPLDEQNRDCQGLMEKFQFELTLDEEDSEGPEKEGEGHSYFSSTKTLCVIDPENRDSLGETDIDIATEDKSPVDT
Consider `O=C(c1ccc2c(c1)N(c1ncc(-c3ccc(CO)s3)cn1)CC21CC1)N1CCOCC1` [Compound 149, [1-[5-[5-(Hydroxymethyl)-thiophen-2-yl]-pyrimidin-2-yl]-spiro[1,2-dihydro-indole-3,1′-cyclopropane]-6-yl]-morpholin-4-yl-methanone], for which the IC50 was below 0.1 µM.

As for `O=C(c1ccc2c(c1)N(c1ncc(-c3ccccn3)cn1)CC21CC1)N1CCOCC1` [Compound 150, Moprholin-4-yl-[1-(5-pyridin-2-yl-pyrimidin-2-yl)-spiro[1,2-dihydro-indole-3,1′-cyclopropane]-6-yl]-methanone], the IC50 was below 0.1 µM.

Consider `O=C(c1ccc2c(c1)N(c1ncc(-c3cccc(F)n3)cn1)CC21CC1)N1CCOCC1` [Compound 151, [1-[5-(6-Fluoro-pyridin-2-yl)-pyrimidin-2-yl]-spiro[1,2-dihydro-indole-3,1′-cyclopropane]-6-yl]-morpholin-4-yl-methanone], for which the IC50 was below 0.1 µM.

For `NC(=O)c1ccc(-c2cnc(N3CC4(CC4)c4ccc(C(=O)N5CCOCC5)cc43)nc2)s1` [Compound 152, 5-[2-[6-(Morpholine-4-carbonyl)-spiro[1,2-dihydro-indole-3,1′-cyclopropane]-1-yl]-pyrimidin-5-yl]-thiophene-2-carboxylic acid amide], the IC50 was 0.1 to 1 µM.

With `N#Cc1ccsc1-c1cnc(N2CC3(CC3)c3ccc(C(=O)N4CCOCC4)cc32)nc1` [Compound 153, 2-[2-[6-(Morpholine-4-carbonyl)-spiro[1,2-dihydro-indole-3,1′-cyclopropane]-1-yl]-pyrimidin-5-yl]-thiophene-3-carbonitrile], the IC50 was below 0.1 µM.

Take `Cc1nc(C)c(-c2cnc(N3CC4(CC4)c4ccc(C(=O)N5CCOCC5)cc43)nc2)s1` [Compound 154, [1-[5-(2,4-Dimethyl-thiazol-5-yl)-pyrimidin-2-yl]-spiro[1,2-dihydro-indole-3,1′-cyclopropane]-6-yl]-morpholin-4-yl-methanone]: the IC50 is below 0.1 µM.

In the case of `Cc1cc(-c2cnc(N3CC4(CC4)c4ccc(C(=O)N5CCOCC5)cc43)nc2)sn1` [Compound 155, [1-[5-(3-Methyl-isothiazol-5-yl)-pyrimidin-2-yl]-spiro[1,2-dihydro-indole-3,1′-cyclopropane]-6-yl]-morpholin-4-yl-methanone], the IC50 is below 0.1 µM.

`NC(=O)c1ccc(-c2cnc(N3CC4(CC4)c4ccc(C(=O)N5CCOCC5)cc43)nc2)o1` [Compound 156, 5-[2-[6-(Morpholine-4-carbonyl)-spiro[1,2-dihydro-indole-3,1′-cyclopropane]-1-yl]-pyrimidin-5-yl]-furan-2-carboxylic acid amide]: the IC50 was below 0.1 µM.

As to `O=C(c1ccc2c(c1)N(c1ncc(-c3cncc(F)c3)cn1)CC21CC1)N1CCOCC1` [Compound 157, [1-[5-(5-Fluoro-pyridin-3-yl)-pyrimidin-2-yl]-spiro[1,2-dihydro-indole-3,1′-cyclopropane]-6-yl]-morpholin-4-yl-methanone], the IC50 was below 0.1 µM.

As to `CC(=O)Nc1ccc(-c2cnc(N3CC4(CC4)c4ccc(C(=O)N5CCOCC5)cc43)nc2)s1` [Compound 158, N-[5-[2-[6-(Morpholine-4-carbonyl)-spiro[1,2-dihydro-indole-3,1′-cyclopropane]-1-yl]-pyrimidin-5-yl]-thiophen-2-yl]-acetamide], the IC50 was below 0.1 µM.

In the case of `Cc1cc(-c2cnc(N3CC4(CC4)c4ccc(C(=O)N5CCOCC5)cc43)nc2)ccn1` [Compound 159, [1-[5-(2-Methyl-pyridin-4-yl)-pyrimidin-2-yl]-spiro[1,2-dihydro-indole-3,1′-cyclopropane]-6-yl]-morpholin-4-yl-methanone], the IC50 is below 0.1 µM.

With `O=C(c1ccc2c(c1)N(c1ncc(-c3ccnc(F)c3)cn1)CC21CC1)N1CCOCC1` [Compound 160, [1-[5-(2-Fluoro-pyridin-4-yl)-pyrimidin-2-yl]-spiro[1,2-dihydro-indole-3,1′-cyclopropane]-6-yl]-morpholin-4-yl-methanone], the IC50 is below 0.1 µM.

For the compound `N#Cc1csc(-c2cnc(N3CC4(CC4)c4ccc(C(=O)N5CCOCC5)cc43)nc2)c1` [Compound 161, 5-[2-[6-(Morpholine-4-carbonyl)-spiro[1,2-dihydro-indole-3,1′-cyclopropane]-1-yl]-pyrimidin-5-yl]-thiophene-3-carbonitrile], the IC50 was below 0.1 µM.

Regarding `O=C(c1ccc2c(c1)N(c1ncc(-c3cncnc3)cn1)CC21CC1)N1CCOCC1` [Compound 162, Morpholin-4-yl-[1-(5-pyrimidin-5-yl-pyrimidin-2-yl)-spiro[1,2-dihydro-indole-3,1′-cyclopropane]-6-yl]-methanone], the IC50 is below 0.1 µM.

Consider `O=C(c1ccc2c(c1)N(c1ncc(-c3cc(F)cnc3F)cn1)CC21CC1)N1CCOCC1` [Compound 163, [1-[5-(2,5-Difluoro-pyridin-3-yl)-pyrimidin-2-yl]-spiro[1,2-dihydro-indole-3,1′-cyclopropane]-6-yl]-morpholin-4-yl-methanone], for which the half-inhibitory concentration (IC50) was below 0.1 µM.

As for `NC(=O)c1ccnc(-c2cnc(N3CC4(CC4)c4ccc(C(=O)N5CCOCC5)cc43)nc2)c1` [Compound 164, 2-[2-[6-(Morpholine-4-carbonyl)-spiro[1,2-dihydro-indole-3,1′-cyclopropane]-1-yl]-pyrimidin-5-yl]-pyridine-4-carboxylic acid amide], the IC50 is below 0.1 µM.

Consider `O=C(c1ccc2c(c1)N(c1ncc(-c3ccc(F)cn3)cn1)CC21CC1)N1CCOCC1` [Compound 165, [1-[5-(5-Fluoro-pyridin-2-yl)-pyrimidin-2-yl]-spiro[1,2-dihydro-indole-3,1′-cyclopropane]-6-yl]-morpholin-4-yl-methanone], for which the IC50 was below 0.1 µM.

Consider `O=C(c1ccc2c(c1)N(c1ncc(-c3c(F)cncc3F)cn1)CC21CC1)N1CCOCC1` [Compound 166, [1-[5-(3,5-Difluoro-pyridin-4-yl)-pyrimidin-2-yl]-spiro[1,2-dihydro-indole-3,1′-cyclopropane]-6-yl]-morpholin-4-yl-methanone], for which the IC50 is below 0.1 µM.

In the case of `Cc1ncccc1-c1cnc(N2CC3(CC3)c3ccc(C(=O)N4CCOCC4)cc32)nc1` [Compound 167, [1-[5-(2-Methyl-pyridin-3-yl)-pyrimidin-2-yl]-spiro[1,2-dihydro-indole-3,1′-cyclopropane]-6-yl]-morpholin-4-yl-methanone], the IC50 was below 0.1 µM.

For the compound `O=C(c1cc2c(cn1)C1(CC1)CN2c1ncc(-c2ccccc2F)cn1)N1CCOCC1` [Compound 168, [1-[5-(2-Fluorophenyl)-pyrimidin-2-yl]-spiro[1,2-dihydro-pyrrolo[3,2-c]pyridine-3,1′-cyclopropane]-6-yl]-morpholin-4-yl-methanone], the IC50 was 0.1 to 1 µM.

Consider `O=C(c1cnc2c(c1)N(c1ncc(-c3ccccc3F)cn1)CC21CC1)N1CCOCC1` [Compound 169, [1-[5-(2-Fluorophenyl)-pyrimidin-2-yl]-spiro[1,2-dihydro-pyrrolo[3,2-b]pyridine-3,1′-cyclopropane]-6-yl]-morpholin-4-yl-methanone], for which the IC50 was in the range of 0.1 to 1 µM.

Take `O=C(c1ccc2c(n1)N(c1ncc(-c3ccccc3F)cn1)CC21CC1)N1CCOCC1` [Compound 170, [1-[5-(2-Fluorophenyl)-pyrimidin-2-yl]-spiro[1,2-dihydro-pyrrolo[2,3-b]pyridine-3,1′-cyclopropane]-6-yl]-morpholin-4-yl-methanone]: the IC50 is below 0.1 µM.

Take `Cn1ccc(-c2cnc(N3CC4(CC4)c4ccc(C(=O)N5CC[C@@H](N)C5)cc43)nc2)c1` [Compound 172, [(3R)-3-Amino-pyrrolidin-1-yl]-[1-[5-(1-methyl-1H-pyrrol-3-yl)-pyrimidin-2-yl]-spiro[1,2-dihydro-indole-3,1′-cyclopropane]-6-yl]-methanone]: the IC50 was below 0.1 µM.

Consider `Cn1cc(-c2cnc(N3CC4(CC4)c4ccc(C(=O)N5CC[C@@H](N)C5)cc43)nc2)cn1` [Compound 173, [(3R)-3-Amino-pyrrolidin-1-yl]-[1-[5-(1-methyl-1H-pyrazol-4-yl)-pyrimidin-2-yl]-spiro[1,2-dihydro-indole-3,1′-cyclopropane]-6-yl]-methanone], for which the IC50 is below 0.1 µM.

Take `CN(C)C(=O)c1ccc2c(c1)N(c1ncc(-c3cccnc3F)cn1)CC21CC1` [Compound 174, 1-[5-(2-Fluoro-pyridin-3-yl)-pyrimidin-2-yl]-N,N-dimethyl-spiro[1,2-dihydro-indole-3,1′-cyclopropane]-6-carboxylic acid amide]: the half-maximal inhibitory concentration (IC50) was below 0.1 µM.

For `O=C(c1ccc2c(c1)N(c1ncc(-c3ccccn3)cn1)CC21CC1)N1CCCC1` [Compound 175, [1-(5-Pyridin-2-yl-pyrimidin-2-yl)-spiro[1,2-dihydro-indole-3,1′-cyclopropane]-6-yl]-pyrrolidin-1-yl-methanone], the IC50 was below 0.1 µM.

Consider `O=C1CN(C(=O)c2ccc3c(c2)N(c2ncc(-c4cccnc4F)cn2)CC32CC2)CCN1` [Compound 176, 4-[1-[5-(2-Fluoro-pyridin-3-yl)-pyrimidin-2-yl]-spiro[1,2-dihydro-indole-3,1′-cyclopropane]-6-carbonyl]-piperazin-2-one], for which the IC50 was below 0.1 µM.

On to `COc1ccsc1-c1cnc(N2CC3(CC3)c3ccc(C(=O)N4CCNC(=O)C4)cc32)nc1` [Compound 177, 4-[1-[5-(3-Methoxy-thiophen-2-yl)-pyrimidin-2-yl]-spiro[1,2-dihydro-indole-3,1′-cyclopropane]-6-carbonyl]-piperazin-2-one], for which the IC50 was below 0.1 µM.

As for `O=C(c1ccc2c(c1)N(c1ncc(Cc3ccccc3F)cn1)CC21CC1)N1CCOCC1` [Compound 178, [1-[5-[(2-Fluorophenyl)-methyl]-pyrimidin-2-yl]-spiro[1,2-dihydro-indole-3,1′-cyclopropane]-6-yl]-morpholin-4-yl-methanone], the IC50 fell in the range of 0.1 to 1 µM.

Turning to `O=C(c1ccc2c(c1)N(c1ncc(Oc3ccccc3F)cn1)CC21CC1)N1CCOCC1` [Compound 179, [1-[5-(2-Fluoro-phenoxy)-pyrimidin-2-yl]-spiro[1,2-dihydro-indole-3,1′-cyclopropane]-6-yl]-morpholin-4-yl-methanone], the IC50 is 0.1 to 1 µM.

In general, IC50 refers to the concentration that inhibits the measured activity by half.
